Data: US20250154109A1, “SODIUM CHANNEL BLOCKING COMPOUNDS, DERIVATIVES THEREOF, AND METHODS OF THEIR USE” (LATIGO BIOTHERAPEUTICS, INC, priority 2022, published 2025)
Read-outs that look alike come from different tables or passages of the source.

Biological target: human Nav1.8 (Homo sapiens, UniProt Q9Y5Y9)
Assay: SyncroPatch384PE assay (automated patch clamp)
Assay type: cell-based
Conditions: human Nav1.8/b3 CHO cells
Protocol: Compounds were tested on recombinant human Nav1.8/b3 stably transfected CHO cells using the SyncroPatch384PE system (Nanion Technologies), an automated patch clamp device. Cells were cultured at 37° C./5% CO2 in Ham's F-12 supplemented with 10% fetal bovine serum, 100 U/mL penicillin G sodium, […] streptomycin sulfate and selection antibiotics (0.01 mg/mL Blasticidin, 0.4 mg/mL Zeocin and 0.25 mg/mL Hygromycin). On the day of the recordings, cells in culture dishes were washed twice with Hank's Balanced Salt Solution (HBSS) and treated with Accutase for approximately 20 minutes. Immediately before use in the SynchroPatch384PE using an 8-hole NPC-384 chip, the cells were washed in HBSS to remove the Accutase and re-suspended in extracellular solution. All experiments were performed at ambient temperature. Intracellular solution contained (mM): CsCl, 50; CsF, 90; MgCl2, 5; EGTA, 1; HEPES, 10; pH adjusted to 7.2 with CsOH. Extracellular solution contained (mM): NaCl, 137; KCl, 4.0; CaCl2), 3.8; MgCl2, 1; HEPES, 10; Glucose, 10; pH adjusted to 7.4 with NaOH. 100 nM tetrodotoxin (TTX) was added to the extracellular solution to block endogenous TTX-sensitive sodium currents.
Compounds were tested in quadruplicate in 0.3% DMSO and 0.03% pluronic Acid. Compounds were diluted 1:3.33 in extracellular solution to create an 8-point concentration response curve. Each plate contained a historical positive control and up to ten compounds. 300 μM tetracaine and 0.3% DMSO+0.03% pluronic acid were used as high and low controls respectively.
Whole cell patch clamp recordings were conducted according to Nanion's standard procedure for SyncroPatch384PE®. Cells were held at a holding potential of −120 mV. A depolarization step to 10 mV for 30 ms was applied (P1 measurement), followed by a hyperpolarization step to −100 mV for 100 ms. An inactivation step at −35 mV for 10 sec was applied before stepping to −100 mV for 20 ms, followed by a step to 10 mV for 30 ms (P2 measurement) and then back to −100 mV for 30 ms. Sweep interval was 15 sec. Following establishment of the whole-cell configuration in extracellular solution, cells were washed in extracellular solution containing 0.3% DMSO and 0.03% pluronic acid to stabilize the baseline current. Compounds were then applied by the SynchroPatch384 PE system into each well and the current was recorded for five minutes in extracellular solution, followed by application of tetracaine to achieve full block at the end of experiment. The potency of the compounds was assessed on two read-outs, resting state block (P1 measurement) or inactivated state block (P2 measurement) to obtain IC50 values. Values were normalized to high (tetracaine) and low (DMSO+pluronic acid) controls.
Examples 1 to 219 and Examples 225 to 236 are assayed using SyncroPatch384PE assay described above.

[1] = inactivated state block (P2 measurement), read-out: P2 IC50
[2] = resting state block (P1 measurement), read-out: P1 IC50

Sequence of human Nav1.8 (Q9Y5Y9 whole entry): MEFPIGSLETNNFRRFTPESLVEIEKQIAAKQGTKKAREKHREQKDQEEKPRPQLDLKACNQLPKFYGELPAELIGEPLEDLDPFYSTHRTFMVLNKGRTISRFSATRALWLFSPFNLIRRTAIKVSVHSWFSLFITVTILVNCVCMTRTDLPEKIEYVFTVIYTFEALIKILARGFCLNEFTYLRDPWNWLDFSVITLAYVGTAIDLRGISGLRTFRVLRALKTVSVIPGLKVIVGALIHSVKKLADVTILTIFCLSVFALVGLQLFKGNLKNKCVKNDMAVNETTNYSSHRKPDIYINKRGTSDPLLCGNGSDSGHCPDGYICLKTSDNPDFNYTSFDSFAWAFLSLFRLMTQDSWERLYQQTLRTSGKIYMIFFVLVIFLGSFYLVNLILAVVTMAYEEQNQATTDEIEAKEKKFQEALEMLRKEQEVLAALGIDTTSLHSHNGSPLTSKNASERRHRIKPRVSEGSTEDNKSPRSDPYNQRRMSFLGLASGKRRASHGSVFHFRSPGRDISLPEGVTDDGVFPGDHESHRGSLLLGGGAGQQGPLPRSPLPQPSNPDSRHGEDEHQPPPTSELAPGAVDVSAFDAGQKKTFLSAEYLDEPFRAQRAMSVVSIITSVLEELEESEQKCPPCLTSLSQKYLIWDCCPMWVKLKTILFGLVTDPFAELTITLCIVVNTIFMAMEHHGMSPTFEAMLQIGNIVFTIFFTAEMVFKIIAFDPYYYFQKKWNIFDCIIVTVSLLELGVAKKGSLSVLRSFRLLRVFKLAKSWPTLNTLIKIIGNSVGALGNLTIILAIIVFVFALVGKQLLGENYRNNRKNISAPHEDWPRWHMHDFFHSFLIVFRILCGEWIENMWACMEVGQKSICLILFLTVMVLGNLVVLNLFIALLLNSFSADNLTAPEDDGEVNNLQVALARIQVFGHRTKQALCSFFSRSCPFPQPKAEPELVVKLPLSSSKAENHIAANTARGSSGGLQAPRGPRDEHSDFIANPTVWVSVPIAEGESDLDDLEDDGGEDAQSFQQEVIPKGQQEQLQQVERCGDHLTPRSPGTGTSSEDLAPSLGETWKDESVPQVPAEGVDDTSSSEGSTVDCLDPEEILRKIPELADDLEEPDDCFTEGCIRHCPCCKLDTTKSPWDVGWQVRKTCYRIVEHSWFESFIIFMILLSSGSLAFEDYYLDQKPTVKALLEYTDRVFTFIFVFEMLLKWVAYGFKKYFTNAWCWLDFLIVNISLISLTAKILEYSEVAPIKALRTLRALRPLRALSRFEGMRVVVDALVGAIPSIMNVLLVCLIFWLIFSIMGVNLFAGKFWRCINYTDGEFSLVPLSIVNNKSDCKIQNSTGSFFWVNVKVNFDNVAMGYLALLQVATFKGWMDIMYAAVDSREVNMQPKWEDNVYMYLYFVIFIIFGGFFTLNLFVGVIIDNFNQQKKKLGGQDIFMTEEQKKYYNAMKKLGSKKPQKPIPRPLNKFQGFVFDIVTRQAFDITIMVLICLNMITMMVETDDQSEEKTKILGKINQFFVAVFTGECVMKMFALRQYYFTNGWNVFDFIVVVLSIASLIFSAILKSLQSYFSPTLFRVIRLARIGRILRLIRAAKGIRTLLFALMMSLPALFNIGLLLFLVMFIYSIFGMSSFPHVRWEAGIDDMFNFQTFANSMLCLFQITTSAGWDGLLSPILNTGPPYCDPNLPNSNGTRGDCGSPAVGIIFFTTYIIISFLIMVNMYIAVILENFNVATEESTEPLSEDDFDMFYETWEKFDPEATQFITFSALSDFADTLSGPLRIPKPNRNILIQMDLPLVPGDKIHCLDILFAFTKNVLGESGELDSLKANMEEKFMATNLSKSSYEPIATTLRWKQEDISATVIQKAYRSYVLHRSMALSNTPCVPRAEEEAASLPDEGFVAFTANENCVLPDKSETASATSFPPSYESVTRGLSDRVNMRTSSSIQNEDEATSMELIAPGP

| SMILES | IC50 [1] | IC50 [2] |
| --- | --- | --- |
| C[S@@](=N)(=O)c1cccc(NC(=O)c2c(N3CCCC(F)(F)CC3)ncc(Cl)c2F)c1 [Example 226, (R)-5-chloro-2-(4,4-difluoroazepan-1-yl)-4-fluoro-N-(3-(S-methylsulfonimidoyl)phenyl)nicotinamide] | ≤ 5 nM | ≤ 5 nM |
| CNCC(=O)N=[S@](C)(=O)c1cccc(NC(=O)c2c(N3CCCC(F)(F)CC3)ncc(-c3cnn(C)c3)c2C)c1 [Example 46, (R)-2-(4,4-difluoroazepan-1-yl)-4-methyl-5-(1-methyl-1H-pyrazol-4-yl)-N-(3-(S-methyl-N-(methylglycyl)sulfonimidoyl)phenyl)nicotinamide] | 5 to 50 nM | 5 to 50 nM |
| Cc1c(C#N)c(C(F)(F)F)nc(N2CCCC(F)(F)CC2)c1C(=O)Nc1cccc([S@@](C)(=O)=NC(=O)C2(N)CC2)c1 [Example 66, (R)-N-(3-(N-(1-aminocyclopropane-1-carbonyl)-S-methylsulfonimidoyl)phenyl)-5-cyano-2-(4,4-difluoroazepan-1-yl)-4-methyl-6-(trifluoromethyl)nicotinamide] | ≤ 5 nM | ≤ 5 nM |
| CS(=N)(=O)c1cccc(NC(=O)c2nnc(C(F)(F)F)cc2N2CCCC(F)(F)CC2)c1 (stereo not shown) [Example 21, 4-(4,4-difluoroazepan-1-yl)-N-(3-(S-methylsulfonimidoyl)phenyl)-6-(trifluoromethyl)pyridazine-3-carboxamide] | > 200 nM | > 200 nM |
| Cc1c(C#N)nnc(N2CCCC(F)(F)CC2)c1C(=O)Nc1cccc([S@](C)(=N)=O)c1 [Example 139, (R)-6-cyano-3-(4,4-difluoroazepan-1-yl)-5-methyl-N-(3-(S-methylsulfonimidoyl)phenyl)pyridazine-4-carboxamide] | 100 to 200 nM | > 200 nM |
| Cc1c(-c2cnn(C)c2)cnc(N2CCCC(F)(F)CC2)c1C(=O)Nc1ccc(F)c([S@](C)(=N)=O)c1 [Example 214, (R)-2-(4,4-difluoroazepan-1-yl)-N-(4-fluoro-3-(S-methylsulfonimidoyl)phenyl)-4-methyl-5-(1-methyl-1H-pyrazol-4-yl)nicotinamide] | 100 to 200 nM | 100 to 200 nM |
| Cc1c(-c2cnn(C)c2)nnc(N2CCCC(F)(F)CC2)c1C(=O)Nc1cccc([S@](C)(=N)=O)c1 [Example 71, (R)-3-(4,4-difluoroazepan-1-yl)-5-methyl-6-(1-methyl-1H-pyrazol-4-yl)-N-(3-(S-methylsulfonimidoyl)phenyl)pyridazine-4-carboxamide] | > 200 nM | > 200 nM |
| Cc1c(-c2ccccc2)cnc(N2CCCC(F)(F)CC2)c1C(=O)Nc1cccc([S@](C)(=N)=O)c1 [Example 122, (R)-2-(4,4-difluoroazepan-1-yl)-4-methyl-N-(3-(S-methylsulfonimidoyl)phenyl)-5-phenylnicotinamide] | ≤ 5 nM | ≤ 5 nM |
| Cc1c(-c2cnn(C)c2)cnc(N2CCCC(F)(F)CC2)c1C(=O)Nc1cccc(S(=N)(N)=O)c1 (stereo not shown) [Example 165, 2-(4,4-difluoroazepan-1-yl)-4-methyl-5-(1-methyl-1H-pyrazol-4-yl)-N-(3-sulfamidimidoylphenyl)nicotinamide] | 5 to 50 nM | 5 to 50 nM |
| Cc1nc(N2CCCC(F)(F)CC2)c(C(=O)Nc2cccc([S@](C)(=N)=O)c2)c(C)c1Br [Example 172, (R)-5-bromo-2-(4,4-difluoroazepan-1-yl)-4,6-dimethyl-N-(3-(S-methylsulfonimidoyl)phenyl)nicotinamide] | ≤ 5 nM | ≤ 5 nM |
| CNCC(=O)N=[S@](C)(=O)c1cccc(NC(=O)c2c(N3CCCC(F)(F)CC3)ncc(-c3ccc(Cl)cc3)c2C)c1 [Example 68, (R)-5-(4-chlorophenyl)-2-(4,4-difluoroazepan-1-yl)-4-methyl-N-(3-(S-methyl-N-(methylglycyl)sulfonimidoyl)phenyl)nicotinamide] | ≤ 5 nM | ≤ 5 nM |
| CS(=N)(=O)c1cc(NC(=O)c2cc(C(F)(F)F)nnc2N2CCCCCC2)ccn1 (stereo not shown) [Example 2, 3-(azepan-1-yl)-N-{2-[imino(methyl)oxo-λ^6-sulfanyl]pyridin-4-yl}-6-(trifluoromethyl)pyridazine-4-carboxamide] | > 200 nM | > 200 nM |
| Cc1nc(N2CCC3(CC2)CC3)c(C(=O)Nc2cccc(S(C)(=N)=O)c2)cc1C(F)(F)F (stereo not shown) [Example 25, 6-Methyl-N-(3-(S-methylsulfonimidoyl)phenyl)-2-(6-azaspiro[2.5]octan-6-yl)-5-(trifluoromethyl)nicotinamide] | ≤ 5 nM | ≤ 5 nM |
| Cc1c(C(F)(F)F)cnc(N2CCCC(F)(F)CC2)c1C(=O)Nc1cccc([S@@](C)(=O)=NC(=O)C2(N)CCC2)c1 [Example 180, (R)-N-(3-(N-(1-aminocyclobutane-1-carbonyl)-S-methylsulfonimidoyl)phenyl)-2-(4,4-difluoroazepan-1-yl)-4-methyl-5-(trifluoromethyl)nicotinamide] | ≤ 5 nM | ≤ 5 nM |

The next lines start with the values.

| IC50 [1] | IC50 [2] | SMILES |
| --- | --- | --- |
| ≤ 5 nM | ≤ 5 nM | Cc1c(Cl)c(C(F)(F)F)nc(N2CCCC(F)(F)CC2)c1C(=O)Nc1cccc([S@@](C)(=N)=O)c1 [Example 108, (S)-5-chloro-2-(4,4-difluoroazepan-1-yl)-4-methyl-N-(3-(S-methylsulfonimidoyl)phenyl)-6-(trifluoromethyl)nicotinamide] |
| ≤ 5 nM | ≤ 5 nM | Cc1c(C#N)cnc(N2CCCC(F)(F)CC2)c1C(=O)NC12CC(C(N)=O)(C1)C2 [Example 136, N-(3-carbamoylbicyclo[1.1.1]pentan-1-yl)-5-cyano-2-(4,4-difluoroazepan-1-yl)-4-methylnicotinamide] |
| 5 to 50 nM | 5 to 50 nM | CNCCN=[S@](C)(=O)c1cccc(NC(=O)c2c(N3CCCC(F)(F)CC3)ncc(-c3cnn(C)c3)c2C)c1 [Example 203, (R)-2-(4,4-difluoroazepan-1-yl)-4-methyl-5-(1-methyl-1H-pyrazol-4-yl)-N-(3-(S-methyl-N-(2-(methylamino)ethyl)sulfonimidoyl)phenyl)nicotinamide] |
| ≤ 5 nM | ≤ 5 nM | Cc1c(-c2cnn(C(F)(F)F)c2)cnc(N2CCCC(F)(F)CC2)c1C(=O)Nc1cccc([S@](C)(=N)=O)c1 [Example 176, (R)-2-(4,4-difluoroazepan-1-yl)-4-methyl-N-(3-(S-methylsulfonimidoyl)phenyl)-5-(1-(trifluoromethyl)-1H-pyrazol-4-yl)nicotinamide] |
| 5 to 50 nM | 50 to 100 nM | Cc1c(-c2cccnc2)cnc(N2CCCC(F)(F)CC2)c1C(=O)Nc1cccc(S(C)(=N)=O)c1 (stereo not shown) [Example 84, 6-(4,4-difluoroazepan-1-yl)-4-methyl-N-(3-(S-methylsulfonimidoyl)phenyl)-[3,3bipyridine]-5-carboxamide] |
| 5 to 50 nM | 5 to 50 nM | Cc1c(-c2cnn(C3CC3)c2)cnc(N2CCCC(F)(F)CC2)c1C(=O)Nc1cccc([S@](C)(=N)=O)c1 [Example 69, (R)-5-(1-cyclopropyl-1H-pyrazol-4-yl)-2-(4,4-difluoroazepan-1-yl)-4-methyl-N-(3-(S-methylsulfonimidoyl)phenyl)nicotinamide] |
| 5 to 50 nM | 5 to 50 nM | Cc1c(-c2cnn(C)c2)cnc(N2CCCC(F)(F)CC2)c1C(=O)Nc1cccc([S@@](C)(=O)=NC(=O)C(N)C(F)(F)F)c1 (stereo partly drawn) [Example 174, N-(3-((R)-N-(2-amino-3,3,3-trifluoropropanoyl)-S-methylsulfonimidoyl)phenyl)-2-(4,4-difluoroazepan-1-yl)-4-methyl-5-(1-methyl-1H-pyrazol-4-yl)nicotinamide] |
| ≤ 5 nM | ≤ 5 nM | CNCC(=O)N=[S@](C)(=O)c1cccc(NC(=O)c2c(N3CCCC(F)(F)CC3)nc(C(F)(F)F)c(C#N)c2C)c1 [Example 65, (R)-5-cyano-2-(4,4-difluoroazepan-1-yl)-4-methyl-N-(3-(S-methyl-N-(methylglycyl)sulfonimidoyl)phenyl)-6-(trifluoromethyl)nicotinamide] |
| 50 to 100 nM | 50 to 100 nM | Cc1c(C(F)(F)F)ncc(N2CCCC(F)(F)CC2)c1C(=O)Nc1cccc([S@](C)(=N)=O)c1 [Example 197, (R)-5-(4,4-difluoroazepan-1-yl)-3-methyl-N-(3-(S-methylsulfonimidoyl)phenyl)-2-(trifluoromethyl)isonicotinamide] |
